EPA's ToxRefDB 2

Experiments:
rat [1] = conditions: Sub-acute repeat dose toxicity, Oral, Gavage/Intubation, dose end: 7 day, group: systemic
rat [2] = conditions: Sub-acute repeat dose toxicity, Oral, Gavage/Intubation, dose end: 7 day, group: systemic; remark: listed apart in the source
primate [3] = conditions: Sub-acute repeat dose toxicity; Oral; Gavage/Intubation; dose end: 5 day; group: systemic; systemic / in life observation / food consumption / food consumption + systemic / in life observation / clinical signs / emesis + systemic…
primate [4] = conditions: Sub-acute repeat dose toxicity; Oral; Gavage/Intubation; dose end: 5 day; group: systemic; systemic / clinical chemistry / aspartate aminotransferase (ast/sgot) / aspartate aminotransferase (ast/sgot) + systemic / clinical …
rat [5] = conditions: Sub-acute repeat dose toxicity, Oral, Gavage/Intubation, dose end: 28 day, group: systemic
rat [6] = conditions: Sub-acute repeat dose toxicity; Oral; Gavage/Intubation; dose end: 4 day; group: systemic; systemic / in life observation / clinical signs / impaired reflex, nos
rat [7] = conditions: Fertility (Segment I), sprague dawley, Oral, Gavage/Intubation, dose end: 7 GD
primate [8] = conditions: Sub-acute repeat dose toxicity, macaque, Oral, Gavage/Intubation, dose end: 1 month, group: systemic
rat [9] = conditions: Prenatal developmental toxicity study; sprague dawley; Oral; Gavage/Intubation; dose end: 17 GD; group: maternal; systemic / in life observation / body weight / body weight + systemic / in life observation / body weight / body weight gain + systemic / in…
primate [10] = conditions: Chronic toxicity, macaque, Oral, Gavage/Intubation, dose end: 6 month, group: systemic
rat [11] = conditions: Sub-acute repeat dose toxicity; sprague dawley; Oral; Gavage/Intubation; dose end: 28 day; group: systemic; systemic / in life observation / body weight / body weight gain + systemic / in life observation / food consumption / food consumption + …
rat [12] = conditions: Chronic toxicity, sprague dawley, Oral, Gavage/Intubation, dose end: 6 month, group: systemic
rat [13] = conditions: Prenatal developmental toxicity study; sprague dawley; Oral; Gavage/Intubation; dose end: 17 GD; group: maternal; systemic / in life observation / body weight / body weight gain + systemic / in life observation / clinical signs / fur (altered appearance…
dog = conditions: Sub-acute repeat dose toxicity, beagle, Oral, Capsule, dose end: 1 month, group: systemic
rabbit = conditions: Prenatal developmental toxicity study, new zealand white, Oral, Gavage/Intubation, dose end: 19 GD
[14] = systemic / hematology / blood clotting / blood clotting - prothrombin time + systemic / organ weight / heart / relative to body weight + …
[15] = systemic / hematology / blood clotting / blood clotting - prothrombin time + systemic / organ weight / liver / absolute + systemic / organ …
[16] = systemic / hematology / blood clotting / blood clotting - prothrombin time + systemic / hematology / lymphocyte / lymphocyte + systemic / in…
[17] = systemic / hematology / blood clotting / blood clotting - activated partial thromboplastin time + systemic / hematology / blood clotting / …
[18] = systemic / hematology / mean corpuscular hemoglobin (mch) / mean corpuscular hemoglobin (mch) + systemic / hematology / mean corpuscular …
[19] = group: maternal, reproductive / reproductive performance / estrous cycle / abnormal
[20] = group: parental, systemic / in life observation / body weight / body weight gain + systemic / in life observation / clinical signs / piloerection + systemic…
[21] = group: parental, systemic / in life observation / body weight / body weight gain + systemic / in life observation / food consumption / food consumption + …
[22] = systemic / in life observation / clinical signs / [other] + systemic / in life observation / clinical signs / defecation (diarrhea) + …
[23] = systemic / in life observation / food consumption / food consumption
[24] = systemic / clinical chemistry / alanine aminotransferase (alt/sgpt) / alanine aminotransferase (alt/sgpt)
[25] = systemic / clinical chemistry / alanine aminotransferase (alt/sgpt) / alanine aminotransferase (alt/sgpt) + systemic / pathology microscopic…
[26] = systemic / clinical chemistry / [other] / [other] + systemic / clinical chemistry / phosphorus / phosphate + systemic / clinical chemistry…
[27] = systemic / clinical chemistry / [other] / [other] + systemic / clinical chemistry / phosphorus / phosphate + systemic / in life observation…
[28] = systemic / clinical chemistry / alanine aminotransferase (alt/sgpt) / alanine aminotransferase (alt/sgpt) + systemic / clinical chemistry / …
[29] = group: developmental, developmental / developmental malformation / eye / open eye
[30] = group: maternal, systemic / in life observation / body weight / body weight gain + systemic / in life observation / food consumption / food consumption + …
[31] = group: maternal, systemic / pathology gross / pancreas / irregular surface + systemic / pathology gross / pancreas / reduced size

`O=C(CO)N1CCC(c2[nH]nc(-c3ccc(Cl)cc3F)c2-c2ccncn2)CC1` was tested, and the LOAEL (rat [1]; [14]) was greater than 2000 mg/kg/day, the NOAEL (rat [1]; [14]) was no less than 2000 mg/kg/day and the LEL (rat [1]; [15]) was 200 mg/kg/day. It also gave an NEL (rat [1]; [15]) of less than 200 mg/kg/day, an LOAEL (rat [2]; [16]) greater than 2000 mg/kg/day and an NOAEL (rat [2]; [16]) of no less than 2000 mg/kg/day. It also gave an LEL (rat [2]; [14]) of 200 mg/kg/day, an NEL (rat [2]; [14]) of less than 200 mg/kg/day and an LEL (primate [3]) of 600 mg/kg/day. For the same compound, the LOAEL (primate [3]) was greater than 600 mg/kg/day, the NEL (primate [3]) was less than 600 mg/kg/day and the NOAEL (primate [3]) was no less than 600 mg/kg/day. The LEL (primate [4]) was 600 mg/kg/day, the LOAEL (primate [4]) was greater than 600 mg/kg/day and the NEL (primate [4]) was less than 600 mg/kg/day. It also gave an NOAEL (primate [4]) of no less than 600 mg/kg/day, an LOAEL (rat [5]; [17]) greater than 2000 mg/kg/day and an NOAEL (rat [5]; [17]) of no less than 2000 mg/kg/day. It also gave an LEL (rat [5]; [18]) of 20 mg/kg/day, an NEL (rat [5]; [18]) of less than 20 mg/kg/day and an LEL (rat [6]) of 50 mg/kg/day. The LOAEL (rat [6]) was greater than 2000 mg/kg/day, the NEL (rat [6]) was less than 50 mg/kg/day and the NOAEL (rat [6]) was no less than 2000 mg/kg/day.
For `COc1cc(-c2nc(NC(=O)c3cc4cc(C)cc(C)c4n3CC(=O)O)sc2CCC2CCCCC2)c(OC)cc1Cl.O=C(O)C(F)(F)F`, the LEL (rat [7]; [19]) was 200 mg/kg/day, the LOAEL (rat [7]; [19]) was greater than 1000 mg/kg/day and the NEL (rat [7]; [19]) was 50 mg/kg/day. For the same compound, the NOAEL (rat [7]; [19]) was no less than 1000 mg/kg/day, the LOAEL (rat [7]; [20]) was greater than 1000 mg/kg/day and the NOAEL (rat [7]; [20]) was no less than 1000 mg/kg/day. The LEL (rat [7]; [21]) was 50 mg/kg/day, the NEL (rat [7]; [21]) was less than 50 mg/kg/day and the LOAEL (primate [8]; [22]) was 5 mg/kg/day. The NOAEL (primate [8]; [22]) was 1 mg/kg/day, the LEL (primate [8]; [23]) was 1 mg/kg/day and the NEL (primate [8]; [23]) was less than 1 mg/kg/day. It also gave an LEL (rat [9]) of 250 mg/kg/day, an LOAEL (rat [9]) greater than 500 mg/kg/day and an NEL (rat [9]) of less than 250 mg/kg/day. The NOAEL (rat [9]) was no less than 500 mg/kg/day, the LEL (primate [10]; [24]) was 0.6 mg/kg/day and the NEL (primate [10]; [24]) was less than 0.6 mg/kg/day. For the same compound, the LOAEL (primate [10]; [25]) was 3 mg/kg/day, the NOAEL (primate [10]; [25]) was 0.6 mg/kg/day and the LEL (rat [11]) was 1 mg/kg/day. It also gave an LOAEL (rat [11]) greater than 30 mg/kg/day, an NEL (rat [11]) of less than 1 mg/kg/day and an NOAEL (rat [11]) of no less than 30 mg/kg/day. For the same compound, the LOAEL (rat [12]; [26]) was greater than 250 mg/kg/day, the NOAEL (rat [12]; [26]) was no less than 250 mg/kg/day and the LEL (rat [12]; [27]) was 1 mg/kg/day. It also gave an NEL (rat [12]; [27]) of less than 1 mg/kg/day, an LEL (rat [13]) of 50 mg/kg/day and an LOAEL (rat [13]) greater than 1000 mg/kg/day. For the same compound, the NEL (rat [13]) was less than 50 mg/kg/day, the NOAEL (rat [13]) was no less than 1000 mg/kg/day and the LOAEL (dog; [28]) was greater than 25 mg/kg/day. The NOAEL (dog; [28]) was no less than 25 mg/kg/day, the LEL (dog; [25]) was 1 mg/kg/day and the NEL (dog; [25]) was less than 1 mg/kg/day. For the same compound, the LEL (rabbit; [29]) was 10 mg/kg/day, the LOAEL (rabbit; [29]) was 10 mg/kg/day and the NEL (rabbit; [29]) was 3 mg/kg/day. It also gave an NOAEL (rabbit; [29]) of 3 mg/kg/day, an LOAEL (rabbit; [30]) greater than 10 mg/kg/day and an NOAEL (rabbit; [30]) of no less than 10 mg/kg/day. For the same compound, the LEL (rabbit; [31]) was 0.5 mg/kg/day and the NEL (rabbit; [31]) was less than 0.5 mg/kg/day.
